How the values were obtained:
VEGFR2 = biological target: T1, VEGFR2 (Homo sapiens, UniProt P35968); assay: Kinase inhibitory activity, Mobility Shift Assay (VEGFR2); assay type: biochemical
T1 construct: purchased Carna 08-191
How it was run: (§1)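 Each kinase pre-incubated 10 min at room temperature, then FAM-labelled peptide with MgCl2 and ATP added; reaction at 28 °C for kinase-dependent times before stop. Substrate conversion read by mobility shift; IC50 from a four-parameter fit of % inhibition against log concentration.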

EGFR = biological target: T2, EGFR (Homo sapiens, UniProt P00533); assay: Kinase inhibitory activity, Mobility Shift Assay (EGFR); assay type: biochemical
T2 construct: purchased Carna 08-115
T2 sequence (P00533 25-1210): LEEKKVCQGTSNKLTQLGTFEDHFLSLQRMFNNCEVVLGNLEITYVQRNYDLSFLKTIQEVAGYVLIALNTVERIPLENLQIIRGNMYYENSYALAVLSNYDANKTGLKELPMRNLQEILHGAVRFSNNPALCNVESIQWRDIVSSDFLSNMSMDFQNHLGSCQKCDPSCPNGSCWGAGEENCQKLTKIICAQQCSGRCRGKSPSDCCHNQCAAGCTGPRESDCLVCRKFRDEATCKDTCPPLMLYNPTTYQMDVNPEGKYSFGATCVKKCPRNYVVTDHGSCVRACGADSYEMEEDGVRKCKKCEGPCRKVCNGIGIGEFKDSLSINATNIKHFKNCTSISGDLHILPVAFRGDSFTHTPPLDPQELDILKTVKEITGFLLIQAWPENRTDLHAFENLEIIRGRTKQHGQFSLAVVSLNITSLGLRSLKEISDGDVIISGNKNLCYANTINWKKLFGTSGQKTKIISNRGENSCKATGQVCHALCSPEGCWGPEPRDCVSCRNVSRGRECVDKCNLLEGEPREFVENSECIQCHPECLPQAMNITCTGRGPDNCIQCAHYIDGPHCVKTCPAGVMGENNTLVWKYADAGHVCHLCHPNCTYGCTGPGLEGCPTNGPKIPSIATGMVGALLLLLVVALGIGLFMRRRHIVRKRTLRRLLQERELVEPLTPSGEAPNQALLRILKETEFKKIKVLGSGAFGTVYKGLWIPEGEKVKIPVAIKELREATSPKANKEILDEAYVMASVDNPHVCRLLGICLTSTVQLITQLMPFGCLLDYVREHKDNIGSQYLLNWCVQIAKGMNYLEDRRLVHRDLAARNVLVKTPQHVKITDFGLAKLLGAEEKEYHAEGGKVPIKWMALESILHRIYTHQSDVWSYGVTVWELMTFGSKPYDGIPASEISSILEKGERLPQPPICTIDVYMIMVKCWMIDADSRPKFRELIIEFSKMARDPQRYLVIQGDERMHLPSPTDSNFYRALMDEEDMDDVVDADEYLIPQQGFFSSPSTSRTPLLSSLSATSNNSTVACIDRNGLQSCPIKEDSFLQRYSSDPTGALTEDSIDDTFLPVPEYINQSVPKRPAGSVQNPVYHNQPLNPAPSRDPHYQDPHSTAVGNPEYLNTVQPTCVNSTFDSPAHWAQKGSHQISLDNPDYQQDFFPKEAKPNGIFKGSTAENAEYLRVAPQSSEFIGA
How it was run: as §1

VEGFR1 = biological target: T3, VEGFR1 (Homo sapiens, UniProt P17948); assay: Kinase inhibitory activity, Mobility Shift Assay (VEGFR1); assay type: biochemical
T3 construct: purchased Invitrogen PR6731B
Protocol: (§2) Assay for Inhibitory Activity of Compounds Against VEGFR and EGFR Kinases
(§3) This assay directly monitors the inhibitory activity of compounds on kinase phosphorylation by measuring non-phosphorylated and phosphorylated substrates in the kinase reaction using Mobility Shift Assays/IMAP™ analysis. Table 2. Reagents and Instruments
(§4) Kinase and DTT were added to 1X kinase buffer to form a 2.5X kinase solution; 10 µL of the 2.5X kinase solution was transferred to a 384-well reaction plate, and 1X kinase buffer was added to the negative control wells. The plate was incubated at room temperature for 10 minutes; FAM-labeled peptide, MgCl2, ATP, and other reagents were added to 1X kinase buffer to form a 2.5X substrate solution; 10 µL of the above 2.5X substrate solution was transferred to the 384-well reaction plate; the plate was incubated at 28°C for varying times, and then 25 µL of stop solution was added to the 384-well reaction plate to terminate the reaction. Conversion rate data were read on a CaliperEZ Reader II. […] IC50 values were fitted using XLFit excel add-in version 5.4.0.8. Y = Bottom + (Top−Bottom)/(1 + […]) [formula]
(§5) X is the log value of compound concentration, Y is the inhibition rate (% inhibition).

VEGFR3 = biological target: T4, VEGFR3 (Homo sapiens, UniProt P35916); assay: Kinase inhibitory activity, Mobility Shift Assay (VEGFR3); assay type: biochemical
T4 construct: purchased Invitrogen PV4129
T4 sequence (P35916 25-1363): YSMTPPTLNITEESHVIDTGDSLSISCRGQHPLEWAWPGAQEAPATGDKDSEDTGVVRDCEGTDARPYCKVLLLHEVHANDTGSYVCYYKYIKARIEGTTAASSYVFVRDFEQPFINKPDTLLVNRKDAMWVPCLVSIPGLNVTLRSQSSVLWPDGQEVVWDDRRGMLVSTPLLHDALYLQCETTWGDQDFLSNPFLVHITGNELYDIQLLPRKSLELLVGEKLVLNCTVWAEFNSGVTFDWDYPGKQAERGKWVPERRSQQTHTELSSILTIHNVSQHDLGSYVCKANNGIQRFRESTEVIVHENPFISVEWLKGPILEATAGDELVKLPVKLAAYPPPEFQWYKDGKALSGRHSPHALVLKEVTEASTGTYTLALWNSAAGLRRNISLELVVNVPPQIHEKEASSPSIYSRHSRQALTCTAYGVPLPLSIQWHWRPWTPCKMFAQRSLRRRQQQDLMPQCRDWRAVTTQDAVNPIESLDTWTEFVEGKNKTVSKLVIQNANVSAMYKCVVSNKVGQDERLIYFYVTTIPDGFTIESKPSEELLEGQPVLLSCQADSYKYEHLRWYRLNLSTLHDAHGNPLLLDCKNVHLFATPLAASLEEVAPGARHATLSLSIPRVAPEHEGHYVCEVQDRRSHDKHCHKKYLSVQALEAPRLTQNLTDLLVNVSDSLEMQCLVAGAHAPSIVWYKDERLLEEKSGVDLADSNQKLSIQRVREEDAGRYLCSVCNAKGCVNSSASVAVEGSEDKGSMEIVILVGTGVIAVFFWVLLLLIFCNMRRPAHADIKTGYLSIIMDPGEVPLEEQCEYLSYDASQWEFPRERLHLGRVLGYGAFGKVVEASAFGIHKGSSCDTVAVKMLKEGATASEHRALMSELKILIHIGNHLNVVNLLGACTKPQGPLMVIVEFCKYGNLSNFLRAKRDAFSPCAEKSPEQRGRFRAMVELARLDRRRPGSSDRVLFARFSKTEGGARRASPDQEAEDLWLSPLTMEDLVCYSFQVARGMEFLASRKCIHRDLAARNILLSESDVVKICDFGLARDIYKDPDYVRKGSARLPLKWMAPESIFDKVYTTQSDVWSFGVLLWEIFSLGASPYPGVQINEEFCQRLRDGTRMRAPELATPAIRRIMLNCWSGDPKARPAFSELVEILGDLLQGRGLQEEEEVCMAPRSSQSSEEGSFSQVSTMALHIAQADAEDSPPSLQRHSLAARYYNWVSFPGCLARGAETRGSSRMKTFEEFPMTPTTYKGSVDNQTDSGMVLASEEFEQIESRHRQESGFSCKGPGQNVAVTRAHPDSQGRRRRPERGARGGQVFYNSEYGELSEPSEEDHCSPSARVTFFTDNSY
Protocol: as §2, §3, §4, §5

[1] = biological target: T5, VEGFR2 autophosphorylation (pVEGFR2) in HUVEC cells (Homo sapiens, UniProt P35968); assay: Inhibition of VEGF-induced VEGFR2 phosphorylation in HUVEC cells (ELISA); assay type: cell-based; settings: 50 ng/mL human VEGF, compound 1 hour
T5 construct: endogenous in cells; host or cells: HUVEC
T5 sequence (P35968 20-1356): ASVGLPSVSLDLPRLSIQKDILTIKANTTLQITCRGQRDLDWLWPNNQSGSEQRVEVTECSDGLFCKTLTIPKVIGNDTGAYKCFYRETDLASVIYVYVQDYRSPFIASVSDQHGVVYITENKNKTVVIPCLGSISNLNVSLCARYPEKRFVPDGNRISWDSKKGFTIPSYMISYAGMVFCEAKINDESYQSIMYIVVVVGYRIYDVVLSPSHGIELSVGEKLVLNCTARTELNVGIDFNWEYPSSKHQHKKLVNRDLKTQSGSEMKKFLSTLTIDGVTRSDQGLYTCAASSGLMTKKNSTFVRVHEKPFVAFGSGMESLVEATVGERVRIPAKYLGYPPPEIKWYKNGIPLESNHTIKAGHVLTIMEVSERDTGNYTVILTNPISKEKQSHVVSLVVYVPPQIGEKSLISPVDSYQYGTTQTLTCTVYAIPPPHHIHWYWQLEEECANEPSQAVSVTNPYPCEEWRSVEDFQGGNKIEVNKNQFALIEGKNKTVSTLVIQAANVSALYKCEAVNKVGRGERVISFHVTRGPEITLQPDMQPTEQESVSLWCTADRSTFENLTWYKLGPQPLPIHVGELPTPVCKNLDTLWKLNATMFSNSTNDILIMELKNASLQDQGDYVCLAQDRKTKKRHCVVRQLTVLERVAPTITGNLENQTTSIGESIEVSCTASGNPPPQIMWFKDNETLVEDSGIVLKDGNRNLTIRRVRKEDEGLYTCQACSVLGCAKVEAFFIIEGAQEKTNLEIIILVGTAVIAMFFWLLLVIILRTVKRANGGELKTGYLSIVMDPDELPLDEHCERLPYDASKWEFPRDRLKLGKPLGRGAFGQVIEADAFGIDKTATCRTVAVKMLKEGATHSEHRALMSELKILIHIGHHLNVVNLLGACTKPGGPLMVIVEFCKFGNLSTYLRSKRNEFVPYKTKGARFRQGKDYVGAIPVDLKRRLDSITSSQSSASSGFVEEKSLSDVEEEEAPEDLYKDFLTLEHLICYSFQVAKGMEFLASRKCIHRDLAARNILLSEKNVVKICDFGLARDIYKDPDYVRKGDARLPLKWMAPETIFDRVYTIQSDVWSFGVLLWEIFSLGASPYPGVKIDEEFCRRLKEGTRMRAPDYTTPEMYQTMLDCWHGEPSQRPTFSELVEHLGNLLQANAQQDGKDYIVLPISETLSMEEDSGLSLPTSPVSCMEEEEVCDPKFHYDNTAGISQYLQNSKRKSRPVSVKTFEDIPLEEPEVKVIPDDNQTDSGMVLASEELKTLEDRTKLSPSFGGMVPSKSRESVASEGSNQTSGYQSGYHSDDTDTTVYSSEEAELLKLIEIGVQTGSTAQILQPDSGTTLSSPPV
From the text: Assay for Compound Inhibition of VEGFR2 Phosphorylation in HUVEC Cells
VEGF is a potent growth factor that promotes angiogenesis and vascular permeability. Vascular endothelial growth factor receptor 2 (VEGFR2) is the primary receptor for VEGF-induced endothelial cell signaling. Upon ligand binding, VEGFR2 undergoes autophosphorylation and is activated. The primary function from VEGFR2 signaling is to induce blood vessel formation during development and after tissue injury, and to bypass blocked vessels. Pathologically, VEGF and VEGFR2 are involved in tumor angiogenesis and vascular leakage. They are considered major players in many different cancers and ocular diseases accompanied by pathological neovascularization. This assay uses ELISA to measure the compound's ability to inhibit VEGF-induced VEGFR2 autophosphorylation (pVEGFR2) in HUVEC cells. Table 7. Reagents and Instruments
Before cell seeding, cells reached 60%-80% confluency in cell culture flasks. The cell suspension was diluted with pre-warmed complete medium to 4.5×10^6 cells/mL. 80 microliters of cell suspension was added to all wells of a 96-well cell plate (Corning-3599); incubated overnight at 37°C and 5% CO2. Compound powder was dissolved in DMSO to 10 mM and stored in a nitrogen cabinet. Compound dilution master plate: In a 96-well V-bottom plate (Axygen- WIPP02280), reference compound Ponatinib or test compound concentrations were added, starting from 5 mM (5 microliters of 10 mM compound solution plus 5 microliters DMSO) with 3-fold serial dilutions for a total of 8 concentration points. […] 20 microliters of diluted compound was transferred from the intermediate plate to the cell plate. The cell plate was then incubated at 37°C and 5% CO2 for 1 hour. […] It was gently shaken for 30 seconds, and the absorbance was measured within 30 minutes using a SpectraMax® 340 PC 384 Absorbance Microplate Reader, reading the optical density value at 450 nm. […]
All other values are expressed as a percentage of these controls (inhibition rate). […]

[2] = Ophthalmic formulations based on polyethylene glycol series vehicles: composition and state (Example 7); assay type: physicochemical
How it was run: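 Compound was dissolved, or nearly dissolved, in PEG 400 by sonication (heated to 50 °C if needed), then mixed into Tris-HCl buffer containing hydroxypropyl-β-cyclodextrin, poloxamer 188 and gellan gum or another viscosity modifier. Physical state was scored visually as solution, near-clear solution, suspension or gel.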

[3] = Table 15: 10 mg/mL, Polyethylene glycol 400 10, Hydroxypropyl-β-cyclodextrin 10, Gellan Gum Gelrite 0.3, Poloxamer 188 1, Tris solution and Citric acid
[4] = Table 16: 2 mg/mL, Polyethylene Glycol 400 5, Poloxamer 188 1, Hydroxypropyl-β-cyclodextrin 6, Gellan Gum Gelrite 0.15, Tris-HCl Buffer (pH 6.8) 25mM

T1 sequence (P35968 20-1356): as above

| IC50 (VEGFR2) [µM] | IC50 (EGFR) [µM] | IC50 (VEGFR1) [µM] | IC50 (VEGFR3) [µM] | IC50 [1] [µM] | State Description: pH [2, 3] | State Description: state [2, 3] | Osmolality (mOsm/kg) [2, 4] [mOsm/kg] | State Description: pH [2, 4] | State Description: state [2, 4] | SMILES |
| --- | --- | --- | --- | --- | --- | --- | --- | --- | --- | --- |
| 0.001 to 0.01 | 6 to 60 | 0.001 to 0.01 | 0.01 to 0.1 | 0.001 to 0.005 |  |  |  |  |  | O=C(NC1CC1)c1cccc(F)c1Sc1ccc2c(/C=C/c3cnn(CCCN4CCCC4)c3)n[nH]c2c1 [Compound I-44, N-cyclopropyl-3-fluoro-2-({3-[(E)-2-{1-[3-(pyrrolidin-1-yl)propyl]-1H-pyrazol-4-yl}ethenyl]-1H-indazol-6-yl}sulfanyl)benzamide] |
|  |  |  |  |  | ~5.5 | gel | ~300 | ~7 | solution | CCNC(=O)c1cc(F)ccc1Sc1ccc2c(/C=C/c3ccc(CN4CCCC4)cn3)n[nH]c2c1 [Compound I-97, N-ethyl-5-fluoro-2-({3-[(E)-2-{5-[(pyrrolidin-1-yl)methyl]pyridin-2-yl}ethenyl]-1H-indazol-6-yl}sulfanyl)benzamide] |
